Results as given in patent US10485776B2, “Medicament for therapeutic treatment of neuropathic disease” (KEMPHYS LTD., priority 2013, dated 2019).
Several values for one entry are separate records, joined by “and”; a condition that tells them apart may be missing. Equal entries are not always repeated.

How the values were obtained:
[1] = Serum pregabalin concentration after application to the back of an adult, LC/MS (Example 12); format: in vivo, human; conditions: 150 mg in aqueous solution applied to the back
Experimental: An aqueous solution containing pregabalin (150 mg) was applied to the back of an adult. After the application, blood was collected, and the serum was deproteinized, and then reacted with dinitrobenzenesulfonyl chloride to derivatize pregabalin. Pregabalin was quantified by LC/MS. The pregabalin concentration reached 9 ng/ml 30 minutes after the administration, and this concentration was maintained thereafter over 3 hours or longer.

[2] = system: model leg (left) footpad of sciatic nerve-ligated rat; assay: Rat pain test, Seltzer partial sciatic nerve ligation model, von Frey up-and-down method, model leg (left); format: in vivo
[3] = system: normal leg (right) footpad of rat; assay: Rat pain test, Seltzer model, von Frey up-and-down method, normal leg (right); format: in vivo
[4] = system: neuropathic pain mouse (L5 and L6 nerve ligation); assay: Suppression of allodynia pain in mouse nerve ligation model, von Frey filament; format: in vivo; conditions: for pain threshold of nerve-ligated group vs medium solvent-applied group: hind leg immersed
Experimental: FIG. 1 is a graph showing results of measurement of analgesic effect obtained by applying an aqueous solution of pregabalin (2.5 mg/ml) to a neuropathic pain mouse. The asterisks (*) indicate the presence of a significant difference with respect to the distilled water-applied group.
FIG. 2 is a graph showing results of measurement of analgesic effect obtained by applying an aqueous solution of pregabalin (7.5 mg/ml) to a neuropathic pain mouse. The asterisks (*) indicate the presence of a significant difference with respect to the distilled water-applied group.
The nerves L5 and L6 of mice (n=6) were ligated with silk threads to prepare pain model. A sham group was prepared as a control (n=6). After 4 weeks, hind legs of the mice were immersed in a 2.5 mg/ml or 7.5 mg/ml aqueous solution of pregabalin (solution prepared by dissolving 75 mg of pregabalin in 10 ml or 30 ml of distilled water) 5 minutes before the measurement until the hair of whole right hind leg was wetted with the solution, and air-dried over 30 minutes after the application. In this state, pain threshold was measured by using a von Frey standard filament, and then pain threshold was measured in the same manner 60 minutes, 90 minutes, and 180 minutes thereafter.

[5] = model site, 1 mg/site on footpad, individual animals No. 71-78
[6] = model site, 1 mg/site, average of 8 animals
[7] = normal site, 1 mg/site on footpad, individual animals No. 71-78
[8] = normal site, 1 mg/site, average of 8 animals

Compound: CC(C)C[C@H](CN)CC(=O)O [Pregabalin]
- time the serum concentration was maintained ([1]; 9 ng/ml level): ≥ 3 h
- concentration at 30 min ([1]; male, human, serum, topical, 30 minutes after the administration): 9 ng/mL
- change of pain threshold values, pain model legs ([2]; 10.0 mg/mL in water with 0.1% Tween 80, 0.10 mL on footpad, after 1 hour): Sufficient increase
- pain threshold value, 1 Hour after administration [2, 5]: 8.0 g and 2.0 g and 6.0 g (5×) and 4.0 g
- pain threshold value, 3 Hour after administration [2, 5]: 6.0 g (2×) and 2.0 g (2×) and 4.0 g (4×)
- pain threshold value, 6 Hour after administration [2, 5]: 4.0 g and 1.0 g (3×) and 2.0 g (4×)
- pain threshold value, 1 Hour after administration, Average [2, 6]: 5.5 g
- pain threshold value, 3 Hour after administration, Average [2, 6]: 4.0 g
- pain threshold value, 6 Hour after administration, Average [2, 6]: 1.9 g
- pain threshold value, before administration, Average ([2]; model site, average of 8 animals, baseline before 1 mg/site): 1.6 g
- pain threshold value, before administration ([2]; model site, individual animals No. 71-78, baseline before 1 mg/site): 2.0 g (2×) and 1.4 g (6×)
- change of pain threshold value, normal leg ([3]; 10.0 mg/mL in water with 0.1% Tween 80, 0.10 mL on footpad): Increase of the threshold value was also observed
- pain threshold value, 1 Hour after administration [3, 7]: 10.0 g and 8.0 g and 15.0 g (2×) and 26.0 g (4×)
- pain threshold value, 3 Hour after administration [3, 7]: 10.0 g (3×) and 26.0 g (2×) and 15.0 g (3×)
- pain threshold value, 6 Hour after administration [3, 7]: 10.0 g (5×) and 8.0 g and 15.0 g (2×)
- pain threshold value, 1 Hour after administration, Average [3, 8]: 19.0 g
- pain threshold value, 3 Hour after administration, Average [3, 8]: 15.9 g
- pain threshold value, 6 Hour after administration, Average [3, 8]: 11.0 g
- pain threshold value, before administration, Average ([3]; normal site, average of 8 animals, baseline before 1 mg/site): 10.8 g
- pain threshold value, before administration ([3]; normal site, individual animals No. 71-78, baseline before 1 mg/site): 8.0 g (2×) and 10.0 g (4×) and 15.0 g (2×)
- pain threshold of nerve-ligated group vs medium solvent-applied group ([4]; 2.5 mg/ml aqueous solution (low dose group), FIG. 1): statistically significant improvement
- pain threshold of nerve-ligated group vs medium solvent-applied group ([4]; 7.5 mg/ml aqueous solution (high dose group), FIG. 2): statistically significant improvement
- persistence of pain threshold improvement ([4]; both 2.5 and 7.5 mg/ml groups): maintained even after 3 hours
